One may read the IC50 as the concentration at which inhibition is half-maximal.

The source of these data is patent US4808603A, “3,5-diacyl-2,6-dialkyl-4-aryl-1,4-dihydropyridines, their use, and pharmaceutical compositions thereof” (Ciba-Geigy Corporation, priority 1985, dated 1989).

For one experiment, the system named is renally hypertonic rats. The experiment is described as follows: reduction in blood pressure in renally hypertonic rats. Type of experiment: in vivo. The settings on record: 2 hours after p.o. administration of 15 mg/kg. As for the experimental part:
For example, 2 hours after p.o. administration of 15 mg/kg of 2,6-dimethyl-4-(3-nitrophenyl)-1,4-dihydropyridine-3,5dicarboxylic acid 3-methyl ester 5-[2-[N-(4-(4-fluorophenyl)-4-oxo-n-butyl)-N-methylamino]ethyl ester] to renally hypertonic rats, a reduction in blood pressure of approx. 45 mm Hg may be observed.

Experiment [1] deals with isolated perfused mesenteric vessels of rats. Put plainly: inhibition of potassium-induced vasoconstriction in isolated perfused mesenteric vessels of rats. The format is cell-based. The note with it: Rattus norvegicus, in vitro. The source says: (§1) The compounds of the formula I and salts thereof have valuable pharmacological properties, especially in the cardiovascular field. […] 177, 21-30, (1965)] by way of the inhibition of potassium- and noradrenalininduced vasoconstriction, for example using 2,6-dimethyl-4-(3-nitrophenyl)-1,4-dihydropyridine-3,5-dicarboxylic acid 3-methyl ester 5-[2-[N-(4-(4-fluorophenyl)-4-oxo-n-butyl)-N-methylamino]ethyl ester] at a concentration of approx. 10^-8 mol/liter (IC50) for the inhibition of potassium-induced vasoconstriction, and at a concentration of approx. 3×10^-10 mol/liter (IC50) for the inhibition of noradrenalin-induced vasoconstriction. […] Pharmacol. 21, 301-304 (1982)], for example using 2,6-dimethyl-4-(3-nitrophenyl)-1,4-dihydropyridine-3,5-dicarboxylic acid 3-methyl ester 5-[2-[N-(4-(4-fluorophenyl)-4-oxo-n-butyl)-N-methylamino]ethyl ester] at a concentration of approx. 10^-8 mol/liter (IC50).

In another experiment the target is T1, serotonin2 -receptors (Rattus norvegicus, UniProt P14842).
T1 construct: membranes of rats' brains; from tissue; host or cells: rat brain membranes
The experiment is described as follows: displacement of 3H-ketanserin from its bonding sites in membranes of rats' brains. Type of experiment: binding. The settings on record: read-out: IC50, displacement of 3H-ketanserin from serotonin2-receptor bonding sites.
Description: as §1

In experiment [2] the test system is isolated perfused mesenteric vessels of rats. Put plainly: inhibition of noradrenalin-induced vasoconstriction in isolated perfused mesenteric vessels of rats. The format is cell-based. The settings on record: Rattus norvegicus, in vitro.
Description: as §1

Structures are written as SMILES.

T1 sequence (P14842 whole entry): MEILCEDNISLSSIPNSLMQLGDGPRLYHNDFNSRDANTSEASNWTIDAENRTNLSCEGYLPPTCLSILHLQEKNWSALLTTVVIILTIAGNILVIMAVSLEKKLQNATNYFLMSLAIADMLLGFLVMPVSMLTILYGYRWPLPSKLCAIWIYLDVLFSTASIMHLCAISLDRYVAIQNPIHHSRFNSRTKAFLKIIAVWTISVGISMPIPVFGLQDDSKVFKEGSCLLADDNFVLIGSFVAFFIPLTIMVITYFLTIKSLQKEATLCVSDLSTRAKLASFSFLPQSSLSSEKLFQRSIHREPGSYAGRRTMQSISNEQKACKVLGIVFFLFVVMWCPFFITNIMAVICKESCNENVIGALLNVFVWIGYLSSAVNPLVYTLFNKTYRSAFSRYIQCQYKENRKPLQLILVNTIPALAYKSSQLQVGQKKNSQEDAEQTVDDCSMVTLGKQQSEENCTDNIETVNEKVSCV

Regarding `COC(=O)C1=C(C)NC(C)=C(C(=O)OCCN(C)CCCC(=O)c2ccc(F)cc2)C1c1cccc([N+](=O)[O-])c1` (stereo not shown) [2,6-dimethyl-4-(3-nitrophenyl)-1,4-dihydropyridine-3,5-dicarboxylic acid 3-methyl ester 5-[2-[N-(4-(4-fluorophenyl)-4-oxo-n-butyl)-N-methylamino]ethyl ester]], the “reduction in blood pressure” value with renally hypertonic rats is “approx. 45 mm Hg”. For the same compound, the half-inhibitory concentration (IC50) in experiment [1] was approximately 0.01 µM; at serotonin2 -receptors it was approximately 0.01 µM; in experiment [2], approximately 0.0003 µM.
